This is an account of results in PubChem BioAssay AID2060623 (Molecular Pharmacology Branch, DTP, NCI, 2025).

The experiment relates to 227483-062-R1-J1-PDC complex spheroids with HUVEC/MSC, viability. Briefly: Anticancer human tumor 227483-062-R1-J1-PDC patient-derived pancreatic carcinoma cell line growth inhibition [CLK]. The following applies: for viability, T/C: stronger effect = lower value. In outline:
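Patient-derived tumor cells grown as complex spheroids with HUVEC endothelial cells and mesenchymal stem cells, treated with drug combinations. Concentrations descend in half-log steps from near clinical Cmax, or from 10 microM if Cmax unknown.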

The mark [1] stands for this setting: curve of first compound, second compound 0.0316 µM.
Setting [2] is: curve of first compound, second compound 0.1 µM.
Where [3] appears, read: curve of first compound, second compound 0.316 µM.
The mark [4] stands for this setting: curve of first compound, second compound 1 µM.
Where [5] appears, read: curve of first compound, second compound 3.16 µM.
[6] abbreviates: curve of first compound, second compound 10 µM.
Setting [7] is: second compound 0.0316 µM, first compound 0.0316 µM.
Setting [8] is: second compound 0.0316 µM, first compound 0.1 µM.
Setting [9] is: second compound 0.1 µM, first compound 0.0316 µM.
[10] abbreviates: second compound 0.1 µM, first compound 0.1 µM.
[11] abbreviates: second compound 0.316 µM, first compound 0.0316 µM.
Setting [12] is: second compound 0.316 µM, first compound 0.1 µM.
[13] abbreviates: second compound 1 µM, first compound 0.0316 µM.
Setting [14] is: second compound 1 µM, first compound 0.1 µM.
The mark [15] stands for this setting: second compound 3.16 µM, first compound 0.0316 µM.
The mark [16] stands for this setting: second compound 3.16 µM, first compound 0.1 µM.
Setting [17] is: second compound 10 µM, first compound 0.0316 µM.
Setting [18] is: second compound 10 µM, first compound 0.1 µM.

Several values for one entry are separate records, joined by “and”; a condition that tells them apart may be missing. Identical values can stand only once. Where only a bound is given, the exact number is not on record here.

For orientation: viability, T/C means the result in the treated group divided by that in the control group, in per cent. As a reminder, the IC50 is the concentration that gives 50% inhibition.
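Further: spheroids exposed to compounds for seven days before readout.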
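Wherever viability, T/C is given: percent of DMSO vehicle control luminescence as 100% viability.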

With `COc1ccc([C@@H](O)c2cc(-c3ncnc4cc(N5CCOCC5)ccc34)c(F)cc2Cl)nn1`, the viability, T/C (compound 0.0316 µM) was 102% and 90.1%; the viability, T/C (compound 0.1 µM) is 101% and 86%; the viability, T/C (compound 0.316 µM) was 94.7% and 86.4%; the viability, T/C (compound 1 µM) is 95.4% and 98.6%; the viability, T/C (compound 3.16 µM) was 92.6% and 80.2%; the viability, T/C (compound 10 µM) is 92.5% and 71%. In addition, the IC50 (curve of compound) was greater than 10000 nM.
Take `NC(=O)C(=Cn1cnc(-c2cc(C(F)(F)F)cc(C(F)(F)F)c2)n1)c1cncnc1`: the viability, T/C is 78.8% and 82.5% (compound 0.00949 µM); 85.2% and 85.8% (compound 0.03 µM); 83.2% and 62.7% (compound 0.0949 µM); 87.1% and 54.1% (compound 0.3 µM); 48.8% and 28% (compound 0.949 µM); 15% and 10.8% (compound 3 µM). Further, the IC50 (curve of compound) is 911 nM and 313 nM.
Take `Cn1ncnc1[C@H]1c2n[nH]c(=O)c3cc(F)cc(c23)N[C@@H]1c1ccc(F)cc1` + CN1CCN(c2cc(C(=O)Nc3cc4cc(-c5cnn(C)c5)ccc4cn3)ccn2)CC1: the IC50 reads like this: under setting [1], greater than 100 nM; under setting [2], greater than 100 nM; under setting [3], less than 0.316 nM; under setting [4], less than 0.316 nM; under setting [5], less than 0.316 nM; under setting [6], less than 0.316 nM. Also, the viability, T/C was 114% (second compound 0.0316 µM, first compound 0.000316 µM); 118% (second compound 0.0316 µM, first compound 0.001 µM); 114% (second compound 0.0316 µM, first compound 0.00316 µM); 101% (second compound 0.0316 µM, first compound 0.01 µM); 95.3% under setting [7]; 92.3% under setting [8]. For the same compound, the viability, T/C (second compound 0.1 µM, first compound 0.000316 µM) was 44.2%; the viability, T/C (second compound 0.1 µM, first compound 0.001 µM) is 66.2%; the viability, T/C (second compound 0.1 µM, first compound 0.00316 µM) was 53.6%; the viability, T/C (second compound 0.1 µM, first compound 0.01 µM) is 53.5%; the viability, T/C under setting [9] was 56.3%; the viability, T/C under setting [10] was 54.8%. The viability, T/C by setting is: (second compound 0.316 µM, first compound 0.000316 µM) 3.12%; (second compound 0.316 µM, first compound 0.001 µM) 3.26%; (second compound 0.316 µM, first compound 0.00316 µM) 3.58%; (second compound 0.316 µM, first compound 0.01 µM) 4.15%; under setting [11], 3.29%; under setting [12], 4.45%. Moreover, the viability, T/C (second compound 1 µM, first compound 0.000316 µM) is 1.25%; the viability, T/C (second compound 1 µM, first compound 0.001 µM) was 1.34%; the viability, T/C (second compound 1 µM, first compound 0.00316 µM) is 1.34%; the viability, T/C (second compound 1 µM, first compound 0.01 µM) is 2.07%; the viability, T/C under setting [13] is 1.23%; the viability, T/C under setting [14] was 1.14%. For the same compound, the viability, T/C is, setting by setting: (second compound 3.16 µM, first compound 0.000316 µM) 1.84%; (second compound 3.16 µM, first compound 0.001 µM) 2.14%; (second compound 3.16 µM, first compound 0.00316 µM) 1.91%; (second compound 3.16 µM, first compound 0.01 µM) 2.43%; under setting [15], 1.6%; under setting [16], 1.89%. In addition, the viability, T/C is 1.14% (second compound 10 µM, first compound 0.000316 µM); 1.09% (second compound 10 µM, first compound 0.001 µM); 1.63% (second compound 10 µM, first compound 0.00316 µM); 2.37% (second compound 10 µM, first compound 0.01 µM); 1.2% under setting [17]; 1% under setting [18].
Turning to `CC(CO)NC(=O)c1cc(-c2ccc(Cl)cc2)nn(-c2cnn(C)c2)c1=O` (configuration not stated), the viability, T/C (compound 0.0316 µM) is 100% and 88.3%; the viability, T/C (compound 0.1 µM) is 106% and 97.9%; the viability, T/C (compound 0.316 µM) was 95% and 100%; the viability, T/C (compound 1 µM) is 113% and 88.8%; the viability, T/C (compound 3.16 µM) was 88.7% and 108%; the viability, T/C (compound 10 µM) is 90.4% and 87%. In addition, the IC50 (curve of compound) is greater than 10000 nM.
In the case of `CC1(C)CCC(CN2CCN(c3ccc(C(=O)NS(=O)(=O)c4ccc(NCC5CCOCC5)c([N+](=O)[O-])c4)c(Oc4cnc5[nH]ccc5c4)c3)CC2)=C(c2ccc(Cl)cc2)C1` + CNC(=O)c1ccc(Nc2nc(OC3CCCC3)c3c(-c4ccc5nc(C)oc5c4)c[nH]c3n2)c(OC)c1, the IC50 is 5960 nM under setting [1]; 5530 nM under setting [2]; 5270 nM under setting [3]; 4510 nM under setting [4]; 3450 nM under setting [5]; less than 31.6 nM under setting [6]. Also, the viability, T/C under setting [7] was 96.7%; the viability, T/C under setting [8] was 101%; the viability, T/C (second compound 0.0316 µM, first compound 0.316 µM) is 100%; the viability, T/C (second compound 0.0316 µM, first compound 1 µM) was 121%; the viability, T/C (second compound 0.0316 µM, first compound 3.16 µM) is 101%; the viability, T/C (second compound 0.0316 µM, first compound 10 µM) was 8.36%. The viability, T/C reads like this: under setting [9], 90.2%; under setting [10], 93.6%; (second compound 0.1 µM, first compound 0.316 µM) 87.7%; (second compound 0.1 µM, first compound 1 µM) 85.9%; (second compound 0.1 µM, first compound 3.16 µM) 87.8%; (second compound 0.1 µM, first compound 10 µM) 9.86%. In addition, the viability, T/C was 100% under setting [11]; 91.2% under setting [12]; 78.7% (second compound 0.316 µM, first compound 0.316 µM); 88.5% (second compound 0.316 µM, first compound 1 µM); 84.6% (second compound 0.316 µM, first compound 3.16 µM); 6.46% (second compound 0.316 µM, first compound 10 µM). Also, the viability, T/C by setting is: under setting [13], 70.6%; under setting [14], 67.2%; (second compound 1 µM, first compound 0.316 µM) 73.1%; (second compound 1 µM, first compound 1 µM) 85.3%; (second compound 1 µM, first compound 3.16 µM) 67.2%; (second compound 1 µM, first compound 10 µM) 9.18%. Besides, the viability, T/C is, setting by setting: under setting [15], 50.3%; under setting [16], 63.3%; (second compound 3.16 µM, first compound 0.316 µM) 55.3%; (second compound 3.16 µM, first compound 1 µM) 57.6%; (second compound 3.16 µM, first compound 3.16 µM) 53.3%; (second compound 3.16 µM, first compound 10 µM) 7.8%. The viability, T/C by setting is: under setting [17], 48%; under setting [18], 45%; (second compound 10 µM, first compound 0.316 µM) 51.7%; (second compound 10 µM, first compound 1 µM) 46.3%; (second compound 10 µM, first compound 3.16 µM) 44.1%; (second compound 10 µM, first compound 10 µM) 9.45%.
Regarding `Nc1ccn(C2OC(CO)C(O)C2(F)F)c(=O)n1` (configuration not stated), the viability, T/C reads like this: (compound 0.0316 µM) 83.5% and 62.6%; (compound 0.1 µM) 43.6% and 29.8%; (compound 0.316 µM) 33.7% and 28.5%; (compound 1 µM) 37.7% and 30.3%; (compound 3.16 µM) 35.4% and 25.7%; (compound 10 µM) 23.9% and 20.4%. The IC50 (curve of compound) was 83.9 nM and 49.5 nM.
